Test results published in US8232273B2, “Heterocyclic compounds and methods of use” (Genentech, Inc., priority 2008, dated 2012).

target: T1, Bcl-xL (GST-Bcl-xL) (Homo sapiens, UniProt Q07817); assay: TR-FRET binding assay, competition with F-Bak for the Bcl-xL binding site; settings: values listed in the order of Table 1, read-out: TR-FRET assay results (Ki), Bcl-xL
Procedure: The measurement of competition of compounds of the invention with F-Bak for a Bcl-2 family protein (Bcl-xL) binding site using a Time Resolved Fluorescence Resonance Energy Transfer (TR-FRET) binding assay:
Test compounds were serially diluted in DMSO starting at 50 μM (2× starting concentration; 10% DMSO) and 10 μt transferred into a 384-well plate.
The samples are then mixed on a shaker for 1 minute then incubated for an additional 2 hours at room temperature. For each assay plate, a probe/antibody and protein/antibody/probe mixture were included as a negative and a positive control, respectively. Fluorescence was measured on the Envision (Perkin Elmer) using a 340/35 nm excitation filter and 520/525 (F-Bak) and 495/510 nm (Tb-labeled anti-his antibody) emission filters. Dissociation constants (Ki) were determined using Wang's equation (see, Wang, Z. X. An exact mathematical expression for describing competitive binding of two different ligands to a protein molecule. FEBS Lett. 1995 360:111-114). The TR-FRET assay can be performed in the presence of varying concentrations of human serum (HS) or fetal bovine serum (FBS).

T1 sequence (Q07817 whole entry, species assumed): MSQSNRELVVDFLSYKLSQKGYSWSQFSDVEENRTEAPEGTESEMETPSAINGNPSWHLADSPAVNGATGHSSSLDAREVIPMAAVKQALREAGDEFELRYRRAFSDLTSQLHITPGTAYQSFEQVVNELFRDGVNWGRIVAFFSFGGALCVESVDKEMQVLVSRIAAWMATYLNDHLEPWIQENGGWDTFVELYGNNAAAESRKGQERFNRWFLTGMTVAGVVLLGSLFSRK

First: N#Cc1c(-c2ccc(OCCCc3sc(N4CCc5cccc(C(=O)Nc6nc7ccccc7s6)c5C4)nc3C(=O)O)cc2)csc1N [Example 47, 5-{3-[4-(5-Amino-4-cyano-thiophen-3-yl)-phenoxy]-propyl}-2-[8-(benzothiazol-2-ylcarbamoyl)-3,4-dihydro-1H-isoquinolin-2-yl]-thiazole-4-carboxylic acid]
Second: N#Cc1cccnc1-c1ccc(OCCCc2sc(N3CCc4cccc(C(=O)Nc5nc6ccccc6s5)c4C3)nc2C(=O)O)cc1 [Example 56, 2-[8-(Benzothiazol-2-ylcarbamoyl)-3,4-dihydro-1H-isoquinolin-2-yl]-5-{3-[4-(3-cyano-pyridin-2-yl)-phenoxy]-propyl}-thiazole-4-carboxylic acid]
The Ki of the first is 2-fold higher: 0.1 nM for the first, 0.05 nM for the second. The second binds more tightly here.

First: O=C(Nc1nc2ccccc2s1)c1cccc2c1CN(c1ccc(CCCCOc3ccccc3)c(C(=O)O)n1)CC2 [Compound 131, 6-(8-(benzo[d]thiazol-2-ylcarbamoyl)-3,4-dihydroisoquinolin-2(1H)-yl)-3-(4-phenoxybutyl)picolinic acid]
Second: O=C(Nc1nc2ccccc2s1)c1cccc2c1CN(c1nc(C(=O)O)c(CCCOc3ccc(N4CCOCC4)cc3)s1)CC2 [Example 59, 2-[8-(Benzothiazol-2-ylcarbamoyl)-3,4-dihydro-1H-isoquinolin-2-yl]-5-[3-(4-morpholin-4-yl-phenoxy)-propyl]-thiazole-4-carboxylic acid]
The Ki of the first is 63-fold higher: 18.9 nM for the first, 0.3 nM for the second. The second binds more tightly here.

First: CC(C)Nc1ncnc2c1cnn2-c1ccc(OCCCc2sc(N3CCc4cccc(C(=O)Nc5nc6ccccc6s5)c4C3)nc2C(=O)O)cc1 [Example 44, 2-(8-(benzo[d]thiazol-2-ylcarbamoyl)-3,4-dihydroisoquinolin-2(1H)-yl)-5-(3-(4-(4-(isopropylamino)-1H-pyrazolo[3,4-d]pyrimidin-1-yl)phenoxy)propyl)thiazole-4-carboxylic acid]
Second: CC(C)Nc1ncnc2c(-c3ccc(OCCCc4sc(N5CCc6cccc(C(=O)Nc7nc8ccccc8s7)c6C5)nc4C(=O)O)cc3)csc12 [Example 69, 2-[8-(Benzothiazol-2-ylcarbamoyl)-3,4-dihydro-1H-isoquinolin-2-yl]-5-{3-[4-(4-isopropylamino-thieno[3,2-d]pyrimidin-7-yl)-phenoxy]-propyl}-thiazole-4-carboxylic acid]
The Ki of the first is 7.1-fold lower: 0.07 nM for the first, 0.5 nM for the second.

Going from N#Cc1c(-c2cccc(OCc3sc(N4CCc5cccc(C(=O)Nc6nc7ccccc7s6)c5C4)nc3C(=O)O)c2)n[nH]c1N [Example 46, 5-[3-(5-Amino-4-cyano-1H-pyrazol-3-yl)-phenoxymethyl]-2-[8-(benzothiazol-2-ylcarbamoyl)-3,4-dihydro-1H-isoquinolin-2-yl]-thiazole-4-carboxylic acid] to N#Cc1cscc1-c1ccc(O)c(Cc2sc(N3CCc4cccc(C(=O)Nc5nc6ccccc6s5)c4C3)nc2C(=O)O)c1 [Example 60, 2-[8-(Benzothiazol-2-ylcarbamoyl)-3,4-dihydro-1H-isoquinolin-2-yl]-5-[5-(4-cyano-thiophen-3-yl)-2-hydroxy-benzyl]-thiazole-4-carboxylic acid], the Ki rises from 1 nM to 176 nM (180-fold). The first binds more tightly here.

Compared with O=C(Nc1nc2ccccc2s1)c1cccc2c1CN(c1nc(C(=O)O)c(CCCOc3ccc(-c4ncnc5c(Br)csc45)cc3)s1)CC2 [Example 65], O=C(Nc1nc2ccccc2s1)c1cccc2c1CN(c1nc(C(=O)O)c(CCCOc3cccc(-n4ncc5cncnc54)c3)s1)CC2 [Example 33] is 4.3-fold higher in Ki: 0.07 nM for the first, 0.3 nM for the second.

Going from O=C(Nc1nc2ccccc2s1)c1cccc2c1CN(c1nc(C(=O)O)c(CCc3ccc4cc(OCCCN5CCOCC5)ccc4c3)s1)CC2 [Example 111, 2-(8-(benzo[d]thiazol-2-ylcarbamoyl)-3,4-dihydroisoquinolin-2(1H)-yl)-5-(2-(6-(3-morpholinopropoxy)naphthalen-2-yl)ethyl)thiazole-4-carboxylic acid] to O=C(Nc1nc2ccccc2s1)c1cccc2c1CN(c1nc(C(=O)O)c(CCCOc3ccc(-c4cnn(CCN5CCOCC5)c4)cc3)s1)CC2 [Example 83, 2-(8-(benzo[d]thiazol-2-ylcarbamoyl)-3,4-dihydroisoquinolin-2(1H)-yl)-5-(3-(4-(1-(2-morpholinoethyl)-1H-pyrazol-4-yl)phenoxy)propyl)thiazole-4-carboxylic acid], the Ki rises from 0.02 nM to 0.05 nM (2.5-fold).

First: CN(C)CC#Cc1ccc(OCCCc2sc(N3CCc4cccc(C(=O)Nc5nc6ccccc6s5)c4C3)nc2C(=O)NS(=O)(=O)C(F)F)c(F)c1 [Compound 147, 2-(8-(benzo[d]thiazol-2-ylcarbamoyl)-3,4-dihydroisoquinolin-2(1H)-yl)-N-(difluoromethylsulfonyl)-5-(3-(4-(3-(dimethylamino)prop-1-ynyl)-2-fluorophenoxy)propyl)thiazole-4-carboxamide]
Second: CN1CCN(Cc2ccc(OCCCc3sc(N4CCc5cccc(C(=O)Nc6nc7ccccc7s6)c5C4)nc3C(=O)O)cc2)CC1 [Example 89, 2-[8-(Benzothiazol-2-ylcarbamoyl)-3,4-dihydro-1H-isoquinolin-2-yl]-5-{3-[4-(4-methyl-piperazin-1-ylmethyl)-phenoxy]-propyl}-thiazole-4-carboxylic acid]
The Ki of the first is higher: over 660 nM for the first, 0.1 nM for the second.

In the case of Cc1c(CN2CCN(C)CC2)cnn1-c1ccc(OCCCc2sc(N3CCc4cccc(C(=O)Nc5nc6ccccc6s5)c4C3)nc2C(=O)O)cc1 [Example 85, 2-(8-(benzo[d]thiazol-2-ylcarbamoyl)-3,4-dihydroisoquinolin-2(1H)-yl)-5-(3-(4-(5-methyl-4-((4-methylpiperazin-1-yl)methyl)-1H-pyrazol-1-yl)phenoxy)propyl)thiazole-4-carboxylic acid], the Ki is reported as 0.05 nM.

target: T1, Bcl-xL (GST-Bcl-xL); assay: AlphaScreen Bcl-xL binding assay, competition with biotinylated Bim peptide; parameters: made in house; settings: values listed in the order of Table 1; read-out: Alphascreen results (IC50) against the Bcl-xL protein
From the text: The measurement of competition of compounds of the invention with Bim26-mer for a Bcl-2 family protein binding site using an Alpha Screen Bcl-xL binding assay:
The BH3 proteins AlphaScreen™ assay was used to identify active small molecules Bcl-2 family protein screen, e.g., Bcl-xL, hmMcl-1 screen.
The beads come in close proximity when the protein and the peptides interact. Donor beads contain a photosensitiser that converts oxygen to an excited form of O2 at an excitation of 680 nm. Energy is transformed from the singlet oxygen and reacts with chemiluminescers on the acceptor bead, resulting in light emission at 520-620 nm. […] With this information, the IC50 of each compound was calculated
GST-Bcl-xL, GST-hmMcl-1 and biotinylated GST proteins were prepared in-house and were stored as stock solutions at −80° C. The biotinylated-Bak, and biotinylated-Bim peptides were purchased from Auspep and were stored as 500 μM stock solutions in 100% DMSO at −80° C. […] DMSO was purchased from AnalaR.
Compounds of the invention were prepared as 10 mM stocks with 100% DMSO on the day prior to performing the assay. […] To achieve a final compound concentration of 1 μM, in a separate matrical plate, 28 μL of 100% DMSO and 2 μL of 10 mM compound was added to a well, mixed well, 2 μL of this solution was taken and added to 38 μL of 100% DMSO. 20 μL of this solution was added to the test matrical plate. Several control compounds were included in the test plates. For the control wells 15 μL 100% DMSO only was added to the appropriate wells of each plate. The compound plates were then serially diluted 2 fold using the MiniTrak. Once titrations were complete, the compound plate was immediately covered with a foil seal to prevent evaporation.
The assay and bead buffers were prepared fresh. Each titrated compound plate was assayed in duplicate. The following volumes were sufficient to run 12 Proxiplates (4 assay plates run in duplicate in each of Bclxl, hmMcl and counter assays)
Protein and Peptide Preparation; and Assay Performance • 1. The assay and bead buffers were used to prepare the acceptor and donor solutions. ALPHASCREEN™ beads are light sensitive and therefore prepared in a darkened room. 2.5 μL of beads were added per 1 mL of buffer. • 2. The volume of protein or peptide to add was calculated using the following formula:
V2=Volume of stock protein/Peptide to add to Acceptor/Donor solution • 3. The assay components were prepared as separate Acceptor and Donor Solutions. The Acceptor Solution contained Acceptor beads and target protein, while the Donor Solution contained Donor beads and biotinylated peptide.
• 4. After the solutions were prepared, they were left to incubate for 30 minutes at room temperature to allow the beads to bind to the protein and the peptide. • 5. 50 μL of Bcl-xL solution, 50 μL of hmMcl-1 solution and 50 μL of biotinylated-GST were added into separate deep wells on an assay plate. A control 50 μL Assay/Bead buffer was added separate well plates (no protein). • 6. 50 μL of Bim solution and 50 μL of Bak solution were added into separate deep well plates. • 7. Transfer 0.3 μL it of sample from the compound plate into each assay plate. • 8. Incubated for 30 mins at RT, then add 5 μL of the Donor solution. After addition of the Donor solution, tapped plates gently and sealed individually with adhesive film. • 9.
The percent inhibition was calculated using the following equation:
[formula] • x=RFU obtained after compound treatment • μ^−=RFU obtained for the negative controls (no protein controls) • μ^+=RFU obtained for the positive controls (DMSO vehicle controls)

Going from O=C(O)c1coc(N2CCc3cccc(C(=O)Nc4nc5ccccc5s4)c3C2)n1 [Compound 124, 2-(8-(benzo[d]thiazol-2-ylcarbamoyl)-3,4-dihydroisoquinolin-2(1H)-yl)oxazole-4-carboxylic acid] to O=C(O)c1ccnc(N2CCc3cccc(C(=O)Nc4nc5ccccc5s4)c3C2)n1 [Compound 122, 2-(8-(benzo[d]thiazol-2-ylcarbamoyl)-3,4-dihydroisoquinolin-2(1H)-yl)pyrimidine-4-carboxylic acid], the IC50 rises from 865 nM to 7500 nM (8.7-fold). The first is the more potent here.

First: O=C(Nc1nc2ccccc2s1)c1cccc2c1CN(c1ncc(Cl)c(C(=O)O)n1)CC2 [Compound 123, 2-(8-(benzo[d]thiazol-2-ylcarbamoyl)-3,4-dihydroisoquinolin-2(1H)-yl)-5-chloropyrimidine-4-carboxylic acid]
Second: O=C(Nc1nc2ccccc2s1)c1cccc2c1CN(c1ccc(CCCOc3ccc(OCCN4CCCC4)cc3)c(C(=O)O)n1)CC2 [Example 106, 6-(8-(benzo[d]thiazol-2-ylcarbamoyl)-3,4-dihydroisoquinolin-2(1H)-yl)-3-(3-(4-(2-(pyrrolidin-1-yl)ethoxy)phenoxy)propyl)picolinic acid]
The IC50 of the first is 3600-fold higher: 4000 nM for the first, 1.1 nM for the second. The second is the more potent here.
